Measurements from PubChem BioAssay (NCI).
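1) Cells in 96-well plates. 2) Compound, 48 h, 5 concentrations. 3) Linear interpolation between surrounding doses. 4) Unreached endpoint = highest concentration. Abbreviation: GI50, concentration required for 50% inhibition of growth. Definition used: TGI = concentration required for complete inhibition of growth.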

Experiments:
Assay in all cases: NCI tumour cell line growth inhibition, 48 h
[1] = test system: EKVX NSCLC
[2] = test system: SF-295 CNS
[3] = test system: SN12C renal
[4] = test system: OVCAR-5 ovarian
[5] = test system: HCC-2998 colon
[6] = test system: MALME-3M melanoma
[7] = test system: MOLT-4 leukemia
[8] = test system: HCT-15 colon
[9] = test system: NCI-H23 lung
[10] = test system: NCI-H522 lung
[11] = test system: UACC-257 melanoma
[12] = test system: SK-OV-3 ovarian
[13] = test system: U251 CNS
[14] = test system: CAKI-1 renal
[15] = test system: K-562 leukemia
[16] = test system: KM12 colon
[17] = test system: RXF 393 renal
[18] = test system: OVCAR-8 ovarian
[19] = test system: NCI-H460 lung
[20] = test system: ACHN renal
[21] = test system: T-47D breast
[22] = test system: IGROV1 ovarian
[23] = test system: OVCAR-3 ovarian
[24] = test system: PC-3 prostate
[25] = test system: SF-268 CNS
[26] = test system: SW-620 colon
[27] = test system: COLO 205 colon
[28] = test system: MCF7 breast
[29] = test system: 786-0 renal
[30] = test system: CCRF-CEM leukemia
[31] = test system: A549 NSCLC
[32] = test system: M14 melanoma
[33] = test system: DU-145 prostate
[34] = test system: SK-MEL-5 melanoma
[35] = test system: BT-549 breast
[36] = test system: MDA-MB-231 breast
[37] = test system: SF-539 CNS
[38] = test system: UO-31 renal
[39] = test system: HCT-116 colon
[40] = test system: HL-60(TB) leukemia
[41] = test system: HOP-62 NSCLC
[42] = test system: MDA-MB-435
[43] = test system: HOP-92 NSCLC
[44] = test system: SK-MEL-2 melanoma
[45] = test system: HT29 colon
[46] = test system: NCI-H226 lung
[47] = test system: LOX IMVI melanoma
[48] = test system: OVCAR-4 ovarian
[49] = test system: SK-MEL-28 melanoma
[50] = test system: NCI/ADR-RES ovarian
[51] = test system: SNB-19 CNS
[52] = test system: UACC-62 melanoma
[53] = test system: A498 renal
[54] = test system: SNB-75 CNS
[55] = test system: HS 578T breast
[56] = test system: TK-10 renal
[57] = test system: RPMI-8226 leukemia

N#Cc1cc(-c2ccnc(Nc3ccc(NC(=O)CCl)cc3)n2)ccc1N1CCCC1
GI50 [1]: 22.6 µM
TGI [1]: > 25 µM
GI50 [2]: 5.11 µM
TGI [2]: 13.9 µM
GI50 [3]: 0.818 µM
TGI [3]: 4.59 µM
GI50 [4]: 5.4 µM
TGI [4]: 12.7 µM
GI50 [5]: 4.96 µM
TGI [5]: 9.14 µM
GI50 [6]: 1.47 µM
TGI [6]: 6.05 µM
GI50 [7]: 2.42 µM
TGI [7]: > 25 µM
GI50 [8]: 0.734 µM
TGI [8]: 3 µM
GI50 [9]: 0.878 µM
TGI [9]: 3.72 µM
GI50 [10]: 0.378 µM
TGI [10]: 0.831 µM
GI50 [11]: 5.04 µM
TGI [11]: 11.6 µM
GI50 [12]: 2.9 µM
TGI [12]: 6.97 µM
GI50 [13]: 3.35 µM
TGI [13]: 8.09 µM
GI50 [14]: 0.875 µM
TGI [14]: 6.77 µM
GI50 [15]: 0.711 µM
TGI [15]: > 25 µM
GI50 [16]: 3.84 µM
TGI [16]: 10.2 µM
GI50 [17]: 0.779 µM
TGI [17]: 2.69 µM
GI50 [18]: 1.15 µM
TGI [18]: > 25 µM
GI50 [19]: 2.04 µM
TGI [19]: 6.4 µM
GI50 [20]: 1.86 µM
TGI [20]: 6.6 µM
GI50 [21]: 5.1 µM
TGI [21]: 11 µM
GI50 [22]: 0.514 µM
TGI [22]: 1.18 µM
GI50 [23]: 2.9 µM
TGI [23]: 7.59 µM
GI50 [24]: 2.68 µM
TGI [24]: 13.9 µM
GI50 [25]: 1.38 µM
TGI [25]: 9.4 µM
GI50 [26]: 0.815 µM
TGI [26]: 2.63 µM
GI50 [27]: 2.87 µM
TGI [27]: 7.17 µM
GI50 [28]: 0.809 µM
TGI [28]: 3.64 µM
GI50 [29]: 0.649 µM
TGI [29]: 6.14 µM
GI50 [30]: 0.738 µM
TGI [30]: > 25 µM
GI50 [31]: 5.27 µM
TGI [31]: 14.7 µM
GI50 [32]: 0.646 µM
TGI [32]: 1.49 µM
GI50 [33]: 4.17 µM
TGI [33]: 16.5 µM
GI50 [34]: 1.08 µM
TGI [34]: 3.72 µM
GI50 [35]: 0.708 µM
TGI [35]: 2.25 µM
GI50 [36]: 2.82 µM
TGI [36]: 10.1 µM
GI50 [37]: 2.81 µM
TGI [37]: 5.9 µM
GI50 [38]: 1.07 µM
TGI [38]: 4.29 µM
GI50 [39]: 0.684 µM
TGI [39]: 1.88 µM
GI50 [40]: 5.1 µM
TGI [40]: > 25 µM
GI50 [41]: 4.64 µM
TGI [41]: 18.8 µM
GI50 [42]: 0.716 µM
TGI [42]: 2.7 µM
GI50 [43]: 4.22 µM
TGI [43]: > 25 µM
GI50 [44]: 0.933 µM
TGI [44]: 2.92 µM
GI50 [45]: 0.68 µM
TGI [45]: 4.8 µM
GI50 [46]: 0.723 µM
TGI [46]: 1.66 µM
GI50 [47]: 0.45 µM
TGI [47]: 0.865 µM
GI50 [48]: 3.49 µM
TGI [48]: 10.5 µM
GI50 [49]: 4.28 µM
TGI [49]: 8.54 µM
GI50 [50]: 1.14 µM
TGI [50]: > 25 µM
GI50 [51]: 4.87 µM
TGI [51]: 16.7 µM
GI50 [52]: 2.22 µM
TGI [52]: 5.99 µM
GI50 [53]: 3.88 µM
TGI [53]: 9.92 µM
GI50 [54]: 1.12 µM
TGI [54]: 7.72 µM
GI50 [55]: 2.22 µM
TGI [55]: > 25 µM
GI50 [56]: 0.894 µM
TGI [56]: 3.48 µM
GI50 [57]: 1.7 µM
TGI [57]: 22.7 µM
